These results are taken from article PMC2803041 (Nature, 2009).

In one assay the target is T1, His-PYR1 with GST-ABI1 (Arabidopsis thaliana, UniProt O49686).
T1 sequence (O49686 1-191): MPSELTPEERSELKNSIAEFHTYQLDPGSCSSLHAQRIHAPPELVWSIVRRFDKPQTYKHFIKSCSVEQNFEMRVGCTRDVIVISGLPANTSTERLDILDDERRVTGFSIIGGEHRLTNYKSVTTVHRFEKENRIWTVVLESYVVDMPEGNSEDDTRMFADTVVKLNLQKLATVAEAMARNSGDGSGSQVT
T1 sequence (P49597 1-434 partner): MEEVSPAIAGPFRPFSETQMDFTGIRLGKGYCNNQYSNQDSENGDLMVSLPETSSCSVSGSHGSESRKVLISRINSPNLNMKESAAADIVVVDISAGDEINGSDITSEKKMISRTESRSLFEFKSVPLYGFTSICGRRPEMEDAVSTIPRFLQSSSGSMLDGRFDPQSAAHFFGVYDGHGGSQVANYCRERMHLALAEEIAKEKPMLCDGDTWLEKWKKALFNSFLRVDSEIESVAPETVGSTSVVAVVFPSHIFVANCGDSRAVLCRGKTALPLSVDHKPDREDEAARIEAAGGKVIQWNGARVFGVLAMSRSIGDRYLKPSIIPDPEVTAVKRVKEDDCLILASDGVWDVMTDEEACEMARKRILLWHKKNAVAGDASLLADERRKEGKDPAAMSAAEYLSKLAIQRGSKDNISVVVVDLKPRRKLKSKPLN
Put plainly: in vitro reconstitution, radiometric kinase assay. Type of assay: biochemical.

The next assay has as its target T2, His-PYR1 with GST-HAB1 (Arabidopsis thaliana, UniProt O49686).
T2 sequence (O49686 1-191): T1 sequence (O49686 1-191)
T2 sequence (Q9CAJ0 1-511 partner): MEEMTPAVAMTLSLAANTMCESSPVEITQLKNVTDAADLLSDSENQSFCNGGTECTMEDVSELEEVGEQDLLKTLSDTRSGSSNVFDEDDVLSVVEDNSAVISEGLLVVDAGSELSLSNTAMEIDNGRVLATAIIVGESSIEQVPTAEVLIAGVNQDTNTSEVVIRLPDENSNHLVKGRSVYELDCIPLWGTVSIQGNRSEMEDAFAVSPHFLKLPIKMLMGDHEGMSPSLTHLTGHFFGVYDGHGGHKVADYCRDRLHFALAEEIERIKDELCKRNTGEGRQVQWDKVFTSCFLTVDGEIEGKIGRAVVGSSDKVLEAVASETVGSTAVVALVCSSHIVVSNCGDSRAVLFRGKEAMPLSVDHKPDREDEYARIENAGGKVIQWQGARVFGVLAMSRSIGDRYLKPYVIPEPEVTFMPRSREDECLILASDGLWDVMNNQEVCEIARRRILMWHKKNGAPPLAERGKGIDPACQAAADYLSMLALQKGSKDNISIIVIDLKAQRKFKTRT
Put plainly: in vitro reconstitution, radiometric kinase assay. The format is biochemical. Particulars: HAB1 in place of ABI1.

Molecule `CC1=CC(=O)CC(C)(C)C1(O)/C=C/C(C)=C\C(=O)O` (stereo in doubt) [(+)-ABA] gave an EC50 at His-PYR1 with GST-ABI1 of 0.8 µM. Further, the “in vitro reconstitution, radiometric kinase assay” value on His-PYR1 with GST-HAB1 is on record as “reconstitution was also achieved when the PP2C protein HAB1 was used instead of ABI1”.

Usually EC50 stands for the concentration that produces a half-maximal response. High values mean a less potent agent, low ones a more potent agent.
